According to PMC10099813, “Stafiba: A STAT5‐Selective Small‐Molecule Inhibitor” (Chembiochem, 2022):

How the values were obtained:
STAT5a = biological target: T1, STAT5a (Homo sapiens, UniProt P42229); test: Competitive fluorescence polarization (FP) binding assay, STAT5a SH2 domain; conditions: for Ki / IC50: FP assay, 2 % DMSO (10 % DMSO for 10); for Ki: Ki calculated from IC50 (n=3) via published equation; for IC50: n=3 unless stated
T1 sequence (P42229 1-794): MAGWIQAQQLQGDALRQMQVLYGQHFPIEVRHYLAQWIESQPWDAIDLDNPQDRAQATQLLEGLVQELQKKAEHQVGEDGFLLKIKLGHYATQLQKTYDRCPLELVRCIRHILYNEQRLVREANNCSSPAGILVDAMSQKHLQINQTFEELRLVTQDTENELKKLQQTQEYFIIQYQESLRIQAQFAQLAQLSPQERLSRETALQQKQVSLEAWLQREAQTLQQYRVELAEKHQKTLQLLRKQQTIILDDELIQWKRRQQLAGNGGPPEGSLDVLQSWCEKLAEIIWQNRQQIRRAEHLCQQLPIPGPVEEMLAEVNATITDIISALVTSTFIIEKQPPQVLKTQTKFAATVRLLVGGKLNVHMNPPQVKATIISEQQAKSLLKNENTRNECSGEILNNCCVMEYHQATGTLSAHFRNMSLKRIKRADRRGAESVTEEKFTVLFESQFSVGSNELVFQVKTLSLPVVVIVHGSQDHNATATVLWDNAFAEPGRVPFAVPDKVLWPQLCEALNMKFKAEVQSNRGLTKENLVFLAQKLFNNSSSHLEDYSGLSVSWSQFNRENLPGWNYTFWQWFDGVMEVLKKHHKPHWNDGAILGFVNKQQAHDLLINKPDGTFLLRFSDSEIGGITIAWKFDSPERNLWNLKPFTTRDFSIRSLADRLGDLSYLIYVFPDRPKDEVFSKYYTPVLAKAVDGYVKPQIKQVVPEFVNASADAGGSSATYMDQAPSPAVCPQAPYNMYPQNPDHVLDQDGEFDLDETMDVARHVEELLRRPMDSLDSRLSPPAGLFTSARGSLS
Experimental: (§1) Fluorescence polarization assays: Competitive binding assays based on fluorescence polarization were carried out essentially as previously described.[[4a]] Unless stated otherwise, final concentrations of the buffer components were: 10 mM Tris (pH 8.0), 50 mM NaCl, 1 mM EDTA, 1 mM DTT, 0.1 % (v/v) Nonidet P‐40 substitute, and 2 % DMSO. Proteins were used at concentrations which reflect the Kd values of the interactions between the fluoropeptide and the protein preparations. Protein concentrations used for activity analysis of compound 5 were 91 nM for STAT1, 107 nM for STAT3, 28 nM for STAT4, 122 nM for STAT5a, 56 nM for STAT5b and 101 nM for STAT6. Protein concentrations used for activity analysis of AC‐4‐130 were 103 nM for STAT5a and 62 nM for STAT5b. […] Final concentration of all fluorescent‐labelled peptides was 10 nM. The following peptides were used in assays: 5‐carboxyfluorescein‐GpYDKPHVL for STAT1; 5‐carboxyfluorescein‐GpYLPQTV‐NH2 for STAT3; 5‐carboxyfluorescein‐GpYLPQNID for STAT4; 5‐carboxyfluorescein‐GpYLVLDKW for STAT5a/5b, and 5‐carboxyfluorescein‐GpYVPWQDLI for STAT6. Protein and test compounds were incubated for 1 h prior to addition of the fluorescein‐labeled peptide. Fluorescence polarization was measured after another 60 min using an Infinite F500 plate reader (Tecan). IC50 values were converted to Ki‐values using the published equation.[13]

STAT1 = biological target: T2, STAT1 (Homo sapiens, UniProt P42224); test: Competitive fluorescence polarization (FP) binding assay, STAT1; conditions: for IC50: 2 % DMSO for 5, 10 % DMSO for 10; for Ki: Ki calculated from IC50, 2 % DMSO for 5, 10 % DMSO for 10
T2 sequence (P42224 1-750): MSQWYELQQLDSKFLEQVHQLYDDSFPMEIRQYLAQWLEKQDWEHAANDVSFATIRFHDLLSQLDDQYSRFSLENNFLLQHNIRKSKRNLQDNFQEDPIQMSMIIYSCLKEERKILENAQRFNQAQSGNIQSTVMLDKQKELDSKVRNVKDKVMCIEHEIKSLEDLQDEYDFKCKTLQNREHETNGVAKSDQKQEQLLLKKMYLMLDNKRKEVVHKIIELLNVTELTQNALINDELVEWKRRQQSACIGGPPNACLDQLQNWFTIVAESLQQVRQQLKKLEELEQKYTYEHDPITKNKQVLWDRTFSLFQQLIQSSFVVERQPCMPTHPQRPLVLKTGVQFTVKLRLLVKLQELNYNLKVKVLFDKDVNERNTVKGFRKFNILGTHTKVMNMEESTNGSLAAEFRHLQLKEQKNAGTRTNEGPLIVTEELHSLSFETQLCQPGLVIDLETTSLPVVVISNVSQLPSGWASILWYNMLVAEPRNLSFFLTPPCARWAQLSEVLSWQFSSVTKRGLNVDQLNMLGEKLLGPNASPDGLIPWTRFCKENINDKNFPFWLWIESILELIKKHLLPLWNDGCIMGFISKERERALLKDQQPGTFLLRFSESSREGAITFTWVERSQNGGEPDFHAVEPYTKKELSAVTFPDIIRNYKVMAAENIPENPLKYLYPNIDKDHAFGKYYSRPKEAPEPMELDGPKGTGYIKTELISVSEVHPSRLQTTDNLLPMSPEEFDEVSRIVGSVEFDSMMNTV
Experimental: as §1

STAT3 = STAT3 (Homo sapiens, UniProt P40763); test: Competitive fluorescence polarization (FP) binding assay, STAT3; conditions: 2 % DMSO for 5, 10 % DMSO for 10
Experimental: as §1

STAT3, sequence (P40763 whole entry, species assumed): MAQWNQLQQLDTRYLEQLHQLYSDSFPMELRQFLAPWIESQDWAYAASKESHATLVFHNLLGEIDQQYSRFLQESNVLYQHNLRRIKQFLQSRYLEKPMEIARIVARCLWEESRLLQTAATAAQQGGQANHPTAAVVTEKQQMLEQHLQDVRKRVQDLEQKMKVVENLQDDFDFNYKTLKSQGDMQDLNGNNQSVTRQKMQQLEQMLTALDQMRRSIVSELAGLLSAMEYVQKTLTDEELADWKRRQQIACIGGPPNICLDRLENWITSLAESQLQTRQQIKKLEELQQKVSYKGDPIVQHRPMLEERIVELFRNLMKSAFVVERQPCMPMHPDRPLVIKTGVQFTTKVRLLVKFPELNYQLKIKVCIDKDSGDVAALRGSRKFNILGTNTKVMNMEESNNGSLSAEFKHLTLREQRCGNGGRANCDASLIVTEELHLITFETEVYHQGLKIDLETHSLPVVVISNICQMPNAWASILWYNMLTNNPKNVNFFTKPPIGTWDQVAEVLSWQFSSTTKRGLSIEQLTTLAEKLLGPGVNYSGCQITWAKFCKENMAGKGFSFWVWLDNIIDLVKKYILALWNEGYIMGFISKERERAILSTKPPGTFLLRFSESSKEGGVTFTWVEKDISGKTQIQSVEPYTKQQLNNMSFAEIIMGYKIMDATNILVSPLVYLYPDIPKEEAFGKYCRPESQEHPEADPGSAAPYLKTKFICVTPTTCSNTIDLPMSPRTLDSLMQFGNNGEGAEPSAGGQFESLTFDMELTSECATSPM

activity compared with AC-4-130 in FP assay against the SH2 domain of STAT5a (STAT5a; Figure 5C)	Structure (SMILES)	Ki (STAT5a) [µM]	IC50 (STAT5a) [µM]	IC50 (STAT1) [µM]	Ki (STAT1) [µM]	inhibition at 100 µM (STAT3) [%]
–	O=C(CNc1ccc(C(=O)Nc2ccc(Oc3ccccc3)cc2)cc1)NCc1cc(OP(=O)(O)O)cc(OP(=O)(O)O)c1 [compound 5]	3.1 ± 0.1	6.4 ± 0.2	70.4 ± 3.1	34.6 ± 1.5	33 ± 11
substantially more active than AC‐4‐130	O=C(CNc1ccc(C(=O)Nc2ccc(Oc3ccccc3)cc2)cc1)NCc1cc(C(F)(F)P(=O)(O)O)c(F)c(C(F)(F)P(=O)(O)O)c1 [compound 10]	3 ± 0.4	6.2 ± 0.7	53.8 ± 1.6	26 ± 0.8	49 ± 3
